In ChEMBL document CHEMBL1687752, “Impact of antifungal prophylaxis on colonization and azole susceptibility of Candida species” (2009):
Values after ≈ are worked out from the molar mass of the structure shown.

Test system: Candida albicans
Experiment: Antifungal activity against Candida albicans isolated from HSCT recipients with acute or chronic GVHD prior to initiation of posaconazole therapy by broth microdilution method
Format: functional

Row | Structure (SMILES) | MIC50 [µg/mL] | MIC90 [µg/mL]
1 | CCC(C)n1ncn(-c2ccc(N3CCN(c4ccc(OCC5COC(Cn6cncn6)(c6ccc(Cl)cc6Cl)O5)cc4)CC3)cc2)c1=O (configuration not stated) [ITRACONAZOLE] | 0.03 (≈ 0.0425 µM) | 0.06 (≈ 0.085 µM)

Test system: Nakaseomyces glabratus
Experiment: Antifungal activity against Candida glabrata isolated from HSCT recipients with acute or chronic GVHD receiving fluconazole assessed as maximum MIC by broth microdilution method
Format: functional

Row | Structure (SMILES) | MIC [µg/mL]
2 | CCC(C)n1ncn(-c2ccc(N3CCN(c4ccc(OCC5COC(Cn6cncn6)(c6ccc(Cl)cc6Cl)O5)cc4)CC3)cc2)c1=O (configuration not stated) [ITRACONAZOLE] | 32

Test system: Nakaseomyces glabratus
Experiment: Antifungal activity against Candida glabrata isolated from HSCT recipients with acute or chronic GVHD receiving posaconazole by broth microdilution method
Format: functional

Row | Structure (SMILES) | MIC50 [µg/mL] | MIC90 [µg/mL]
3 | CCC(C)n1ncn(-c2ccc(N3CCN(c4ccc(OCC5COC(Cn6cncn6)(c6ccc(Cl)cc6Cl)O5)cc4)CC3)cc2)c1=O (configuration not stated) [ITRACONAZOLE] | 2 (≈ 2.83 µM) | 8 (≈ 11.3 µM)

Test system: Nakaseomyces glabratus
Experiment: Antifungal activity against Candida glabrata isolated from neutropenic subject 1497 with AML or MDS pharynx after 61 days prophylaxis by broth microdilution method
Format: functional

Row | Structure (SMILES) | MIC [µg/mL]
4 | CCC(C)n1ncn(-c2ccc(N3CCN(c4ccc(OCC5COC(Cn6cncn6)(c6ccc(Cl)cc6Cl)O5)cc4)CC3)cc2)c1=O (configuration not stated) [ITRACONAZOLE] | 0.06 (≈ 0.085 µM)

Test system: Candida albicans
Experiment: Antifungal activity against Candida albicans isolated from HSCT recipient 262 with acute or chronic GVHD mouth after 115 days prophylaxis by broth microdilution method
Format: functional

Row | Structure (SMILES) | MIC [µg/mL]
5 | CCC(C)n1ncn(-c2ccc(N3CCN(c4ccc(OCC5COC(Cn6cncn6)(c6ccc(Cl)cc6Cl)O5)cc4)CC3)cc2)c1=O (configuration not stated) [ITRACONAZOLE] | < 0.015

Test system: Nakaseomyces glabratus
Experiment: Antifungal activity against Candida glabrata isolated from neutropenic subject 1318 with AML or MDS stool after 36 days prophylaxis by broth microdilution method
Format: functional

Row | Structure (SMILES) | MIC [µg/mL]
6 | CCC(C)n1ncn(-c2ccc(N3CCN(c4ccc(OCC5COC(Cn6cncn6)(c6ccc(Cl)cc6Cl)O5)cc4)CC3)cc2)c1=O (configuration not stated) [ITRACONAZOLE] | 0.25 (≈ 0.354 µM)

Test system: Candida albicans
Experiment: Antifungal activity against Candida albicans isolated from HSCT recipient 042 with acute or chronic GVHD mouth after 112 days prophylaxis by broth microdilution method
Format: functional

Row | Structure (SMILES) | MIC [µg/mL]
7 | CCC(C)n1ncn(-c2ccc(N3CCN(c4ccc(OCC5COC(Cn6cncn6)(c6ccc(Cl)cc6Cl)O5)cc4)CC3)cc2)c1=O (configuration not stated) [ITRACONAZOLE] | < 0.015

Test system: Nakaseomyces glabratus
Experiment: Antifungal activity against 60 days cultured Candida glabrata isolated from HSCT recipient with acute or chronic GVHD mouth receiving antifungal therapy for 75 days after 33 days of prophylaxis by broth microdilution method
Format: functional

Row | Structure (SMILES) | MIC [µg/mL]
8 | CCC(C)n1ncn(-c2ccc(N3CCN(c4ccc(OCC5COC(Cn6cncn6)(c6ccc(Cl)cc6Cl)O5)cc4)CC3)cc2)c1=O (configuration not stated) [ITRACONAZOLE] | 4 (≈ 5.67 µM)

Test system: Nakaseomyces glabratus
Experiment: Antifungal activity against 1 day cultured Candida glabrata isolated from HSCT recipient with acute or chronic GVHD mouth after 17 days of prophylaxis by broth microdilution method
Format: functional

Row | Structure (SMILES) | MIC [µg/mL]
9 | CCC(C)n1ncn(-c2ccc(N3CCN(c4ccc(OCC5COC(Cn6cncn6)(c6ccc(Cl)cc6Cl)O5)cc4)CC3)cc2)c1=O (configuration not stated) [ITRACONAZOLE] | > 8

Test system: Candida albicans
Experiment: Antifungal activity against Candida albicans isolated from neutropenic subjects with AML or MDS receiving posaconazole by broth microdilution method
Format: functional

Row | Structure (SMILES) | MIC50 [µg/mL] | MIC90 [µg/mL]
10 | CCC(C)n1ncn(-c2ccc(N3CCN(c4ccc(OCC5COC(Cn6cncn6)(c6ccc(Cl)cc6Cl)O5)cc4)CC3)cc2)c1=O (configuration not stated) [ITRACONAZOLE] | 0.015 (≈ 0.0213 µM) | 0.03 (≈ 0.0425 µM)

Test system: Nakaseomyces glabratus
Experiment: Antifungal activity against Candida glabrata isolated from neutropenic subject 1318 with AML or MDS stool receiving antifungal drug after 36 days prophylaxis by broth microdilution method
Format: functional

Row | Structure (SMILES) | MIC [µg/mL]
11 | CCC(C)n1ncn(-c2ccc(N3CCN(c4ccc(OCC5COC(Cn6cncn6)(c6ccc(Cl)cc6Cl)O5)cc4)CC3)cc2)c1=O (configuration not stated) [ITRACONAZOLE] | > 8

Test system: Nakaseomyces glabratus
Experiment: Antifungal activity against 10 days cultured Candida glabrata isolated from neutropenic subject with AML or MDS stool receiving antifungal therapy for 37 days after 9 days of prophylaxis by broth microdilution method
Format: functional

Row | Structure (SMILES) | MIC [µg/mL]
12 | CCC(C)n1ncn(-c2ccc(N3CCN(c4ccc(OCC5COC(Cn6cncn6)(c6ccc(Cl)cc6Cl)O5)cc4)CC3)cc2)c1=O (configuration not stated) [ITRACONAZOLE] | 2 (≈ 2.83 µM)

Test system: Nakaseomyces glabratus
Experiment: Antifungal activity against Candida glabrata isolated from neutropenic subjects with AML or MDS prior to initiation of posaconazole therapy by broth microdilution method
Format: functional

Row | Structure (SMILES) | MIC50 [µg/mL] | MIC90 [µg/mL]
13 | CCC(C)n1ncn(-c2ccc(N3CCN(c4ccc(OCC5COC(Cn6cncn6)(c6ccc(Cl)cc6Cl)O5)cc4)CC3)cc2)c1=O (configuration not stated) [ITRACONAZOLE] | 0.25 (≈ 0.354 µM) | 8 (≈ 11.3 µM)

Test system: Candida albicans
Experiment: Antifungal activity against 1 day cultured Candida albicans isolated from HSCT recipient with acute or chronic GVHD mouth after 2 days of prophylaxis by broth microdilution method
Format: functional

Row | Structure (SMILES) | MIC [µg/mL]
14 | CCC(C)n1ncn(-c2ccc(N3CCN(c4ccc(OCC5COC(Cn6cncn6)(c6ccc(Cl)cc6Cl)O5)cc4)CC3)cc2)c1=O (configuration not stated) [ITRACONAZOLE] | < 0.03

Test system: Nakaseomyces glabratus
Experiment: Antifungal activity against Candida glabrata isolated from neutropenic subject 1497 with AML or MDS pharynx receiving antifungal drug after 61 days prophylaxis by broth microdilution method
Format: functional

Row | Structure (SMILES) | MIC [µg/mL]
15 | CCC(C)n1ncn(-c2ccc(N3CCN(c4ccc(OCC5COC(Cn6cncn6)(c6ccc(Cl)cc6Cl)O5)cc4)CC3)cc2)c1=O (configuration not stated) [ITRACONAZOLE] | 8 (≈ 11.3 µM)

Test system: Nakaseomyces glabratus
Experiment: Antifungal activity against Candida glabrata isolated from HSCT recipient 270 with acute or chronic GVHD mouth after 108 days prophylaxis by broth microdilution method
Format: functional

Row | Structure (SMILES) | MIC [µg/mL]
16 | CCC(C)n1ncn(-c2ccc(N3CCN(c4ccc(OCC5COC(Cn6cncn6)(c6ccc(Cl)cc6Cl)O5)cc4)CC3)cc2)c1=O (configuration not stated) [ITRACONAZOLE] | 0.125 (≈ 0.177 µM)

Test system: Nakaseomyces glabratus
Experiment: Antifungal activity against Candida glabrata isolated from HSCT recipient 807 with acute or chronic GVHD mouth receiving antifungal drug after 114 days prophylaxis by broth microdilution method
Format: functional

Row | Structure (SMILES) | MIC [µg/mL]
17 | CCC(C)n1ncn(-c2ccc(N3CCN(c4ccc(OCC5COC(Cn6cncn6)(c6ccc(Cl)cc6Cl)O5)cc4)CC3)cc2)c1=O (configuration not stated) [ITRACONAZOLE] | > 8

Test system: Nakaseomyces glabratus
Experiment: Antifungal activity against 15 days cultured Candida glabrata isolated from HSCT recipient with acute or chronic GVHD mouth receiving antifungal therapy for 168 days after 113 days of prophylaxis by broth microdilution method
Format: functional

Row | Structure (SMILES) | MIC [µg/mL]
18 | CCC(C)n1ncn(-c2ccc(N3CCN(c4ccc(OCC5COC(Cn6cncn6)(c6ccc(Cl)cc6Cl)O5)cc4)CC3)cc2)c1=O (configuration not stated) [ITRACONAZOLE] | 4 (≈ 5.67 µM)
